Results as given in US20250263370A1 (Tay Therapeutics Limited, priority 2022, published 2025).
Values joined by “and” are separate entries in the source; they are usually repeats but may differ in a detail not shown here. Equal values may be shown once.

System: collagen-induced arthritis
Assay: Collagen-induced arthritis (CIA) model in rats: body weight, paw volume, clinical scores, clinical observations; as to Average detailed clinical score, left hind limb: key of the grades not given here; as to Average detailed clinical score, right hind limb: key of the grades not given here; as to Detailed Clinical Scores: left forelimb: key of the grades not given here; as to Detailed Clinical Scores: left hind limb: key of the grades not given here; as to Detailed Clinical Scores: right forelimb: key of the grades not given here; as to Detailed Clinical Scores: right hind limb: key of the grades not given here; as to Detailed Clinical Scores: score: key of the grades not given here; as to Mean overall clinical score ± SD: key of the grades not given here; as to Overall clinical score: key of the grades not given here
Conditions: for Overall clinical score: individual animals #1-8; for Mean animal paw volume ± SD: group mean; for Animal paw volume percent change: individual animals
[1] = Day 18, 3 mg/kg, CIA rats, individual animals ID 1-8

What does the source list for CNC(=O)c1[nH]c(C(=O)NC2CCC2)cc1O[C@@H](C)c1ccccc1 (stereo in doubt) [Example 101, N^5-cyclobutyl-N^2-methyl-3-(1-phenylethoxy)-1H-pyrrole-2,5-dicarboxamide]?
Average detailed clinical score, left hind limb (Day 15, CIA rats, 3 mg/kg): 2.00; Average detailed clinical score, right forelimb (Day 15, CIA rats, 3 mg/kg): 0.25; Average detailed clinical score, right hind limb (Day 15, CIA rats, 3 mg/kg): 2.13; Average detailed clinical score, score (Day 15, CIA rats, 3 mg/kg): 4.38; Mean overall clinical score ± SD (Day 15, CIA rats, 3 mg/kg): 4 ± 2; Overall clinical score (Day 15, CIA rats, 3 mg/kg): 2 and 3 (3×) and 6 (2×) and 8 and 4; Average detailed clinical score, left forelimb (Day 15, CIA rats, 10 mg/kg): 0.00; Average detailed clinical score, left hind limb (Day 15, CIA rats, 10 mg/kg): 1.75; Average detailed clinical score, right forelimb (Day 15, CIA rats, 10 mg/kg): 0.00; Average detailed clinical score, right hind limb (Day 15, CIA rats, 10 mg/kg): 1.50; Average detailed clinical score, score (Day 15, CIA rats, 10 mg/kg): 3.25; Mean overall clinical score ± SD (Day 15, CIA rats, 10 mg/kg): 3 ± 3; Overall clinical score (Day 15, CIA rats, 10 mg/kg): 5 and 4 and 7; Average detailed clinical score, left forelimb (Day 15, CIA rats, 30 mg/kg): 0.00; Average detailed clinical score, left hind limb (Day 15, CIA rats, 30 mg/kg): 0.38; Average detailed clinical score, right forelimb (Day 15, CIA rats, 30 mg/kg): 0.00; Average detailed clinical score, right hind limb (Day 15, CIA rats, 30 mg/kg): 0.50; Average detailed clinical score, score (Day 15, CIA rats, 30 mg/kg): 0.88; Mean overall clinical score ± SD (Day 15, CIA rats, 30 mg/kg): 1 ± 1; Mean animal paw volume ± SD (Day 18, L paw, 3 mg/kg): 2.49 mL; Animal paw volume percent change (Day 18, L paw, 3 mg/kg): 83.52% and 101.14% and 98.86% and 81.04% and 106.51% and 80.59% and 82.40%; Mean animal paw volume ± SD (Day 18, L paw, 10 mg/kg): 2.08 mL; Animal paw volume percent change (Day 18, L paw, 10 mg/kg): 72.92% and 61.90% and 97.28% and 109.73% and 15.71% and 76.54%; Mean animal paw volume ± SD (Day 18, L paw, 30 mg/kg): 1.70 mL; Mean animal paw volume ± SD (Day 18, R paw, 3 mg/kg): 2.53 mL; Animal paw volume percent change (Day 18, R paw, 3 mg/kg): 67.68% and 91.39% and 100.38% and 76.49% and 106.51% and 89.22% and 86.89%; Mean animal paw volume ± SD (Day 18, R paw, 10 mg/kg): 2.02 mL; Animal paw volume percent change (Day 18, R paw, 10 mg/kg): 58.36% and 65.34% and 94.21% and 111.20% and 22.39% and 46.36%; Mean animal paw volume ± SD (Day 18, R paw, 30 mg/kg): 1.63 mL; Detailed Clinical Scores: left forelimb [1]: 0; Detailed Clinical Scores: left hind limb [1]: 3 and 4; Detailed Clinical Scores: right forelimb [1]: 0; Detailed Clinical Scores: right hind limb [1]: 4 and 3; Detailed Clinical Scores: score [1]: 7; Average detailed clinical score, left forelimb (Day 18, CIA rats, 3 mg/kg): 0.50; Average detailed clinical score, left hind limb (Day 18, CIA rats, 3 mg/kg): 3.88; Average detailed clinical score, right forelimb (Day 18, CIA rats, 3 mg/kg): 0.50; Average detailed clinical score, right hind limb (Day 18, CIA rats, 3 mg/kg): 3.88; Average detailed clinical score, score (Day 18, CIA rats, 3 mg/kg): 8.75; Mean overall clinical score ± SD (Day 18, CIA rats, 3 mg/kg): 9 ± 2; Overall clinical score (Day 18, CIA rats, 3 mg/kg): 7 (2×) and 8 (4×) and 12 (2×); Average detailed clinical score, left forelimb (Day 18, CIA rats, 10 mg/kg): 0.00; Average detailed clinical score, left hind limb (Day 18, CIA rats, 10 mg/kg): 2.50; Average detailed clinical score, right forelimb (Day 18, CIA rats, 10 mg/kg): 0.88; Average detailed clinical score, right hind limb (Day 18, CIA rats, 10 mg/kg): 2.25; Average detailed clinical score, score (Day 18, CIA rats, 10 mg/kg): 5.63; Mean overall clinical score ± SD (Day 18, CIA rats, 10 mg/kg): 6 ± 4; Overall clinical score (Day 18, CIA rats, 10 mg/kg): 7 and 6 and 12; Average detailed clinical score, left forelimb (Day 18, CIA rats, 30 mg/kg): 0.00; Average detailed clinical score, left hind limb (Day 18, CIA rats, 30 mg/kg): 1.13; Average detailed clinical score, right forelimb (Day 18, CIA rats, 30 mg/kg): 0.00; Average detailed clinical score, right hind limb (Day 18, CIA rats, 30 mg/kg): 0.88; Average detailed clinical score, score (Day 18, CIA rats, 30 mg/kg): 2.00; Mean overall clinical score ± SD (Day 18, CIA rats, 30 mg/kg): 2 ± 2; Mean animal paw volume ± SD (Day 19, L paw, 3 mg/kg): 2.64 mL; Animal paw volume percent change (Day 19, L paw, 3 mg/kg): 91.95% and 116.35% and 108.75% and 85.50% and 107.28% and 90.11% and 81.65%; Mean animal paw volume ± SD (Day 19, L paw, 10 mg/kg): 2.07 mL; Animal paw volume percent change (Day 19, L paw, 10 mg/kg): 71.48% and 61.51% and 93.39% and 105.45% and 13.03%; Mean animal paw volume ± SD (Day 19, L paw, 30 mg/kg): 1.76 mL
